Reference: US7863247B1, “Prevention of fetal alcohol syndrome and neuronal cell death with ADNF polypeptides” (Ramot-University Authority for Applied Research and …, priority 2000, dated 2011)
No end group written: not given here.

Legend:
[1] = tested on: C57-B16J mice exposed to alcohol in utero; assay: Fetal death (% demises at E18) in the FAS model; type: in vivo; settings: pretreatment 30 min prior to alcohol on E8 (NAP 20 μg; NAP 20 μg+SAL 20 μg; VIP 1 μg); counted at E18
Method: (§1) A published well-delineated model for FAS was followed (Webster et al., Neurobehav Tox, 2:227-34 (1980)). Animals were injected (intraperitoneal) on E8 with 25% ethyl alcohol in saline (v/v) or vehicle alone at 0.030 ml/g body weight at 0900 on E8. Pretreatment with VIP and ADNF polypeptides (e.g., NAP, SAL, NAP+SAL) were given 30 min prior to alcohol. Post-treatment with NAP+SAL was given at 1 or 3 h after alcohol. Dosages of the neuropeptides were NAP (20 μg and 40 μg), SAL (20 μg), NAP (20 μg)+SAL (20 μg); VIP (1 μg). NAP+SAL without alcohol was also studied. NAP was diluted in 50 μl DMSO and diluted in filtered Dulbecco's phosphate buffered saline (DPBS). SAL was dissolved and diluted in filtered DPBS. VIP was dissolved in 20 μl glacial acetic acid and diluted in HPLC water and DPBS. […]
(§2) At E18 (embryonic gestation day 18), the number of live and demised fetuses was determined. […] The mean fetal weights were determined for each mother, and this was used for statistical analysis.
(§3) The mean litter pup and fetal brain weight was calculated, with the litter mean used for all statistical analysis. Percent demises were calculated by dividing the number of demises by the total number of fetuses (live plus demises). […]

[2] = tested on: C57-B16J mice exposed to alcohol in utero; assay: Fetal weights at E18 in the FAS model; type: in vivo
Method: A published well-delineated model for FAS was followed (Webster et al., Neurobehav Tox, 2:227-34 (1980)). Animals were injected (intraperitoneal) on E8 with 25% ethyl alcohol in saline (v/v) or vehicle alone at 0.030 ml/g body weight at 0900 on E8. Pretreatment with VIP and ADNF polypeptides (e.g., NAP, SAL, NAP+SAL) were given 30 min prior to alcohol. Post-treatment with NAP+SAL was given at 1 or 3 h after alcohol. Dosages of the neuropeptides were NAP (20 μg and 40 μg), SAL (20 μg), NAP (20 μg)+SAL (20 μg); VIP (1 μg). NAP+SAL without alcohol was also studied. NAP was diluted in 50 μl DMSO and diluted in filtered Dulbecco's phosphate buffered saline (DPBS). SAL was dissolved and diluted in filtered DPBS. VIP was dissolved in 20 μl glacial acetic acid and diluted in HPLC water and DPBS. Since the animals receiving alcohol were incapacitated for approximately 6 hours following injection, food and water were withheld from all groups for the initial 6 hours, to allow accurate assessment of fetal weights.
At E18 (embryonic gestation day 18), the number of live and demised fetuses was determined. Fetal weights and fetal brain weights were obtained for each fetus in the litter. The mean fetal weights were determined for each mother, and this was used for statistical analysis.
The mean litter pup and fetal brain weight was calculated, with the litter mean used for all statistical analysis. Percent demises were calculated by dividing the number of demises by the total number of fetuses (live plus demises). Statistical analysis included ANOVA for continuous variables, Mann-Whitney U for nonparametic data, Chi square for categorical variables or Fisher's exact test where appropriate [Statview 4.5 (Abacus Concepts, Inc., Berkeley, Calif.)] with p<0.05 considered significant. Results are presented as mean±standard error unless specified.

[3] = Bioavailability of 3H-NAP to embryos (size exclusion chromatography); type: in vivo, mice
Method: FIG. 7a and FIG. 7b illustrate chromatographs of radiolabel (^3H) present in 1 ml fractions from a size exclusion column (Superdex Peptide HR 10/30, Pharmacia Biotech). ^3H-NAP (2 μCi/20 μg) was administered intraperitoneally to pregnant mice at E8. Intact NAP was present in fractions 15-17 denoted by shaded grey bar on graphs. FIG. 7a illustrates a pooled sample of three embryos (different litters) after a thirty minute exposure to ^3H-NAP. Based on this accumulation of labeled peptide, approximately 1 pmoles of NAP was found in the embryo, with an estimated concentration of 10 nM, well within the therapeutic range of NAP. FIG. 7b illustrates a pooled sample of three embryos (different litters) after a sixty minute exposure to ^3H-NAP.
The bioavailability of NAP to embryos was assessed by intraperitoneal administration of ^3H-NAP (2 μCi/20 μg) to pregnant mice at E8. […] Based on this accumulation of labeled peptide, approximately […] of NAP was found in the embryo, with an estimated concentration of 10 nM, well within the therapeutic range of NAP.

[4] = tested on: C57-B16J mice exposed to alcohol in utero; assay: Fetal brain weights at E18 in the FAS model; type: in vivo; settings: pretreatment 30 min prior to alcohol on E8 (SAL 20 μg; NAP 20 μg+SAL 20 μg)
Method: as §1, §2, §3

[5] = pretreatment 30 min prior to alcohol on E8 (NAP 20 μg; SAL 20 μg; NAP 20 μg+SAL 20 μg; VIP 1 μg)

Substance	percentage of fetal demises [1]	fetal weights (alcohol-induced growth restriction) [2, 5]	fetal weights (alcohol-induced growth restriction) ([2]; pretreatment with a double dosage of NAP (40 μg))	estimated concentration of NAP in the embryo ([3]; 3H-NAP 2 μCi/20 μg intraperitoneal at E8, 30 min) [nM]	radioactivity recovered in the embryo co-migrating with intact NAP ([3]; 3H-NAP 2 μCi/20 μg intraperitoneal to pregnant mice at E8, 30 min after administration) [%]	fetal brain weights (alcohol-induced microcephaly) [4]
Asn-Ala-Pro-Val-Ser-Ile-Pro-Gln [NAP]	prevented the death seen with alcohol	moderately prevented the alcohol-induced growth restrictions	moderately prevented the alcohol-induced growth restriction	~10	60	–
SALLRSIPA	–	did not prevent the alcohol-induced fetal weight reduction	–	–	–	moderately prevented the alcohol-induced fetal brain weight reduction
vasoactive intestinal peptide (HSDAVFTDNYTRLRKQMAVKKYLNSILN; ends and bridges not checked; UniProt P01282 125-152, looked up) [VIP, neuropeptide that is a regulator of early postimplantation mouse embryonic growth, reference compound]	did not reverse the fetal death rate	improved embryonic weights; however, the effect was intermediate and not statistically significant	–	–	–	–
